Several values for one entry are separate records, joined by “and”; a condition that tells them apart may be missing. Equal entries are not always repeated. Entries after “also recorded” stand apart in the source; their conditions may differ. Structures can show the parent of a compound that is named as a salt. Where two headings read alike, the source gives them in different places.
Tests used:
[1] = test system: mice; assay: Rotarod motor test (motor impairment and sedation); type: in vivo
[2] = molecular target: T1, ALPHA-2A ADRENERGIC RECEPTOR (Homo sapiens (Human), UniProt P08913); assay: Gi recruitment (G protein); type: cell-based
T1 sequence (P08913 whole entry): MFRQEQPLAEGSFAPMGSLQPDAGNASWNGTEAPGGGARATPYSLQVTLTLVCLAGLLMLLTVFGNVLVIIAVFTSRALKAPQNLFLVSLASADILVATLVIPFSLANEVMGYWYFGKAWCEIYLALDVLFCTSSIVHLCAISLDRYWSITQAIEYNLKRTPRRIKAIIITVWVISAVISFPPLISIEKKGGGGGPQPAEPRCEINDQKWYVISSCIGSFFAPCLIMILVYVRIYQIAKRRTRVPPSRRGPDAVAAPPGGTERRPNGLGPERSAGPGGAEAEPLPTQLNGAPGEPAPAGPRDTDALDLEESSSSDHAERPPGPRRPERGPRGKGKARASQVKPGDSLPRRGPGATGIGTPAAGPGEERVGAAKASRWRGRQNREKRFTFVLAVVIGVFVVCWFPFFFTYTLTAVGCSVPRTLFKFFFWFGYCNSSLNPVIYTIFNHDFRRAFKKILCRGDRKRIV

[3] = molecular target: T2, human α2AAR (Homo sapiens (Human), UniProt P08913); assay: β-arrestin-2 recruitment, BRET biosensor assay in HEK293T cells; settings: HEK-293T
T2 sequence (P08913 whole entry): as above
Experimental: Bioluminescense resonance energy transfer. G protein mediated activation of human α2AAR and D2long was monitored with Gαi1-RLucII (71, 72) together with Gβ1 and Gγ1-GFP10. Arrestin recruitment was performed by enhanced bystander BRET using CAAX-rGFP and β-arrestin-2-RLucII as biosensors (all biosensors are provided from M. Bouvier, Université de Montréal, Canada) (71, 73) in the presence of GRK2 as described (66, 74). In brief, HEK293T cells were transfected with a total amount of 3.3 μg DNA per 10^6 cells using linear polyethyleneimine (PEI, Polysciences, 3:1 PEI:DNA ratio) and transferred into 96-well half-area plates (Greiner, Frickenhausen, Germany) at a density of 10,000 cells per well and incubated for 48 hrs. Medium was exchanged with PBS (Hank's balanced salt solution) and cells were stimulated with ligands at 37° C. for 10 min for Gαi stimulation or arrestin recruitment, respectively.

[4] = test system: SNI mice; assay: Spared-nerve injury (SNI) model of neuropathic pain, von Frey mechanical thresholds; type: in vivo; settings: for Effect of atipamezole on the agonist's effect in SNI mice: atipamezole 2 mg/kg, 15 minutes prior
Experimental: Spared-nerve injury (SNI) model of neuropathic pain. Under isoflurane anesthesia, two of the three branches of the sciatic nerve were ligated and transected distally, leaving the sural nerve intact. Behavior was tested 7 to 14 days after injury and in situ hybridization was performed one week post-injury.

[5] = molecular target: T2, human α2AAR; assay: Gαi G protein activation, BRET biosensor assay in HEK293T cells; settings: for Emax: HEK-293T
[6] = molecular target: T2, human α2AAR; assay: Radioligand competition binding to human α2AAR (HEK293T membranes, [3H]RX82,1002); settings: for Ki: human α2AAR
[7] = molecular target: α2AAR F427^7.39 mutant (Homo sapiens (Human), UniProt P08913, F427A); assay: Gi activation (BRET) at α2AAR F427^7.39 mutant; type: cell-based
α2AAR F427^7.39 mutant, sequence (P08913 whole entry F427A): as the sequence (P08913 whole entry) above, with F427A counted along it
Experimental: Investigating the sensitivity of selected ligands to the receptor mutants α2AAR-D128^3.32A, α2AAR-D128^3.32T, α2AAR-D128^3.32L, α2AAR-S215^5.42A, α2AAR-Y409^6.55A, α2AAR-Y409^6.55T, α2AAR-Y409^6.55F, α2AAR-F427^7.39F, α2AAR-Y431^7.43A, and α2AAR-Y431^7.43F was determined by monitored G protein stimulation as described above transfecting the appropriate receptor together with Gαi1-RLucII and Gβ1/Gγ1-GFP10. […] Three to ten experiments were done in duplicate.
The sensitivity of selected ligands to the receptor mutants α2AAR-D128^3.32A, α2AAR-D128^3.32T, α2AAR-D128^3.32L, α2AAR-S215^5.42A, α2AAR-Y409^6.55A, α2AAR-Y409^6.55T, α2AAR-Y409^6.55F, α2AAR-F427^7.39F, α2AAR-Y431^7.43A, and α2AAR-Y431^7.43F was monitored by G protein activation as described above transfecting the appropriate receptor together with Gαi1-RLucII and Gβ1/Gγ2-GFP10. […] Similarly, the effect of the α2AAR-D128^3.32A, α2AAR-S215^5.42A, α2AAR-Y409^6.55A, α2AAR-Y409^6.55F, α2AAR-F427^7.39F, α2AAR-Y431^7.43A, and α2AAR-Y431^7.43F mutations on arrestin recruitment was evaluated as described above transfecting the appropriate receptor together with CAAX-rGFP, GRK2 and β-arrestin-2-RLucII. Data was analyzed as ligand induced changes in BRET compared to vehicle (deltaBRET). Three to seven experiments were done in duplicate.

[8] = molecular target: T1, ALPHA-2A ADRENERGIC RECEPTOR; assay: Arrestin recruitment; type: cell-based; settings: Tables 7-9
[9] = Pharmacokinetics in mice (plasma, brain, CSF); type: in vivo
Experimental: Pharmacokinetics. Pharmacokinetic experiments were performed by Bienta (Enamine Biology Services) in accordance with Enamine pharmacokinetic study protocols and Institutional Animal Care and Use Guidelines (protocol number 1-2/2020). […] In each compound study, nine time points (5, 15, 30, 60, 120, 240, 360, 480 and 1440 min) were collected, each of the time point treatment group included 3 animals. There was also a control group of one animal. In the ‘9087, ‘7075, ‘4622 studies, male C57BL/6N mice were used, for PS75 CD-1 mice, and for ‘2998 male Balb/cAnN mice. For all compound studies the animals were randomly assigned to the treatment groups before the pharmacokinetic study; all animals were fasted for 4 h before dosing. For injections, ‘9087 was dissolved in Captisol—water (40%:60%, w/v), ‘4622 was dissolved in a 20% Kolliphor HS—physiological saline solution, and ‘7075, PS75, and ‘2998 were dissolved in a 20% 2-HPBCD—aqueous solution. The batches of working formulations were prepared 10 minutes prior to the in vivo study.
Mice were injected i.p. with 2,2,2-tribromoethanol at 150 mg/kg prior to drawing CSF and blood. CSF was collected under a stereomicroscope from cisterna magna using 1 mL syringes. Blood collection was performed from the orbital sinus in microtainers containing K3EDTA. Animals were sacrificed by cervical dislocation after the blood samples collection. Blood samples were centrifuged 10 min at 3000 rpm. Brain samples (right lobe) were weighed and transferred into 1.5 ml tubes. All samples were immediately processed, flash-frozen and stored at −70° C. until subsequent analysis.
Plasma samples (40 μL) were mixed with 200 μL of internal standard (IS) solution. After mixing by pipetting and centrifuging for 4 min at 6000 rpm, 4 μL of each supernatant was injected into the LC-MS/MS system. Solutions of internal standards were used to quantify compounds in the plasma samples. […] After this, the samples were centrifuged for 4 min at 14,000 rpm, and supernatant was injected into LC-MS/MS system. CSF samples (2 μL) were mixed with 40 μL of an internal stock solution. After mixing by pipetting and centrifuging for 4 min at 6,000 rpm, 5 μL of each supernatant was injected into LC-MS/MS system.
(§1) Analyses of plasma, brain and CSF samples were conducted at Enamine/Bienta. The concentrations of compounds in plasma and brain samples were determined using high performance liquid chromatography/tandem mass spectrometry (HPLC-MS/MS). Data acquisition and system control was performed using Analyst 1.5.2 software (AB Sciex, Canada). […] Pharmacokinetic data analysis was performed using noncompartmental, bolus injection or extravascular input analysis models in WinNonlin 5.2 (PharSight).
Mice were injected i.p. with 2,2,2-tribromoethanol at 150 mg/kg prior to drawing CSF and blood. CSF was collected under a stereomicroscope from cisterna magna using 1 mL syringes. Blood collection was performed from the orbital sinus in microtainers containing K3EDTA. Animals were sacrificed by cervical dislocation after the blood samples collection. Blood samples were centrifuged 10 min at 3000 rpm. Brain samples (right lobe) were weighed and transferred into 1.5 mL tubes. All samples were immediately processed, flash-frozen and stored at −70° C. until subsequent analysis.
as §1
Additional pharmacokinetic experiments were performed by Sai Life Sciences (Hyderabad, India) in accordance with the Sai Study Protocol SAIDMPK/PK-22-04-0340. […] Testing was done in C57BL/6 mice.

[10] = test system: CFA mice; assay: Complete Freund's Adjuvant (CFA) inflammatory pain model, Hargreaves test; settings: mouse, in vivo
Experimental: The CFA model of chronic inflammation was induced as described previously (96). Briefly, CFA (Sigma) was diluted 1:1 with saline and vortexed for 30 minutes. When fully suspended, we injected 20 μL of CFA into one hindpaw. Heat thresholds were measured before the injection (baseline) and 3 days after using the Hargreaves test.
The CFA model of chronic inflammation was induced as described previously (100). Briefly, CFA (Sigma) was diluted 1:1 with saline and vortexed for 30 minutes. When fully suspended, we injected 20 μL of CFA into one hindpaw. Heat thresholds were measured before the injection (baseline) and 3 days after using the Hargreaves test.

[11] = test system: mice; assay: Tail flick (50° C.) acute thermal pain assay; type: in vivo
[12] = analgesia in vivo; settings: result in words, Table 6
[13] = Metabolic stability in male rat liver microsomes; type: in vitro ADME; settings: 1 hour
Experimental: Metabolic stability studies. Metabolic stability of the test compounds was assessed using male pooled rat liver microsomes (Sprague Dawley, Sigma Aldrich) as previously described (93, 94). The reactions were carried out in 2 mL polyethylene tubes on a rotator carousel (Stuart™ SB3) in an incubator at 37° C. […] Transformation reactions were initiated by the addition of 50 μL of cofactor solution (NADPH, Carl Roth, final concentration 1 mM). […] Precipitated protein was removed by centrifugation (1 min, 16,000 rcf) and the supernatants were analysed by HPLC/MS on a Thermo Scientific Dionex Ultimate 3000 HPLC system equipped with a Zorbax Eclipse XDB-C8 column (4.6×150 mm, 5 μm), a DAD detector (210 nm, 230 nm, 254 nm, 310 nm), and a BRUKER amaZon SL mass spectrometer with ESI source. The following binary eluent system (methanol in water+0.1% (v/v) formic acid) was employed: 10% for 1 min, 10% to 100% in 20 min, 100% for 5 min, 100% to 10% in 2 min, 10% for 2 min, flow 0.4 mL/min. […] Control experiments were conducted in the absence of cofactor solution to determine non-specific binding to matrix. The integral (AUC) of the extracted ion chromatograms (EIC) was used to analyze the concentration of the remaining substrates. […]

[14] = test system: naïve mice; assay: Mechanical thresholds (von Frey) in naïve (uninjured) mice; settings: mouse, in vivo
[15] = molecular target: T2, human α2AAR; assay: α2AAR internalization assay with rGFP-CAAX and rGFP-FYVE biosensors; type: cell-based; settings: α2AAR-RlucII/rGFP-CAAX biosensor
Experimental: Human α2AAR internalization was evaluated by measuring the disappearance of hα2AAR-RlucII from the plasma membrane labeled with rGFP-CAAX and its relocalization in endosome labeled with rGFP-FYVE (39).
For concentration-response curves, BRET signal was measured after 30 min incubation. Plates were read on a Spark microplate reader (Tecan; Mannedorf, Switzerland) using the BRET2 manufacturer settings.

[16] = molecular target: human α2BAR (Homo sapiens (Human), UniProt P18089); assay: Radioligand competition binding to human α2BAR; settings: saturation binding
human α2BAR, sequence (P18089 whole entry): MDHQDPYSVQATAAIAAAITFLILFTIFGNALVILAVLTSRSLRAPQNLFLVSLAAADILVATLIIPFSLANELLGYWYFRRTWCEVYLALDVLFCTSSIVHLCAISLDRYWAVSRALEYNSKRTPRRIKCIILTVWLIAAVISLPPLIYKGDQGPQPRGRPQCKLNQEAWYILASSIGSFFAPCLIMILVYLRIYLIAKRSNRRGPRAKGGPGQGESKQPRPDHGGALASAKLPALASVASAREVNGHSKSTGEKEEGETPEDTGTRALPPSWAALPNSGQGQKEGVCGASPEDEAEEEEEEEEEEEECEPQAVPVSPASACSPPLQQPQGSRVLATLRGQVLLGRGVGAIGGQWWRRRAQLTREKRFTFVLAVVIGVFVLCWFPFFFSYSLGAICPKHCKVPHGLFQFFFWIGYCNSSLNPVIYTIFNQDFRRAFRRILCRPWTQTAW

[17] = molecular target: murine α2AAR (Mus musculus (Mouse), UniProt Q01338); assay: Radioligand competition binding to murine α2AAR; settings: saturation binding
murine α2AAR, sequence (Q01338 whole entry): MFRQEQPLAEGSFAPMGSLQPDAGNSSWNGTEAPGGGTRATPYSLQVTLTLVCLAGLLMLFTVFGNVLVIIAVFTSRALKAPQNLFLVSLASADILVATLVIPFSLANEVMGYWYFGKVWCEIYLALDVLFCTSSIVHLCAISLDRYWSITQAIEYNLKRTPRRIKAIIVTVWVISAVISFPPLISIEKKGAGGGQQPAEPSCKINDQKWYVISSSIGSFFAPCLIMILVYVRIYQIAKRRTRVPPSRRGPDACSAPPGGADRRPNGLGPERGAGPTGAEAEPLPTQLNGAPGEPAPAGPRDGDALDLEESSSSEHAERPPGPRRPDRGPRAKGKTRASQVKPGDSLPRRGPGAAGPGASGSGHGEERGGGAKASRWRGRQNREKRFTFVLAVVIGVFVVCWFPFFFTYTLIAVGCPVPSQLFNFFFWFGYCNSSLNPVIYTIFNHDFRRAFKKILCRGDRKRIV

[18] = molecular target: α2CAR (Homo sapiens (Human), UniProt P18825); assay: Radioligand binding to α2C adrenergic receptor; settings: saturation binding
α2CAR, sequence (P18825 whole entry): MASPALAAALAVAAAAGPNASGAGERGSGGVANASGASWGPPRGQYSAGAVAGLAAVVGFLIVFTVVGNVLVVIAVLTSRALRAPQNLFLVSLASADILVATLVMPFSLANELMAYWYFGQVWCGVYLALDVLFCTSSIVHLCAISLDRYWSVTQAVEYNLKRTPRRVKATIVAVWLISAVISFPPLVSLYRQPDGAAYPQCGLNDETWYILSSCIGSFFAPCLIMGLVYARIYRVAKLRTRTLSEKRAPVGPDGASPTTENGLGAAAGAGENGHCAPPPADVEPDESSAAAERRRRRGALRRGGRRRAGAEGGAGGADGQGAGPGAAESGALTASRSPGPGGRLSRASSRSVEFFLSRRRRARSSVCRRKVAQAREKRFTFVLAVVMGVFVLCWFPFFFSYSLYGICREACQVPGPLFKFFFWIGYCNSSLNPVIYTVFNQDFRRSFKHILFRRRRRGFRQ

[19] = Gαi EC50, BRET biosensor, HEK293T, human α2AAR
[20] = mean ± s.e.m., read-out: Ki for α2AAR
[21] = C57BL/6N ('9087, '7075, '4622), CD-1 (PS75), mouse, CSF, ip, I.P. 10 mg/kg, read-out: T ½ CSF (converted)
[22] = mouse, brain, ip, I.P. 10 mg/kg, read-out: T ½ Brain (converted)
[23] = mouse, plasma, ip, I.P. 10 mg/kg
[24] = mouse, plasma, ip, I.P. 10 mg/kg, read-out: T ½ Plasma (converted)
[25] = C57BL/6N ('9087), C57BL/6 (PS75), mouse, plasma, iv, I.V. 10 mg/kg
[26] = C57BL/6N ('9087), C57BL/6 (PS75), mouse, plasma, po, P.O. 30 mg/kg

SMILES: C1=C(c2ccc3c(c2)CC3)CNCC1 [Compound 4622, 5-(Bicyclo[4.2.0]octa-1,3,5-trien-3-yl)-1,2,3,6-tetrahydropyridine]
- Motor impairment / sedation in rotarod test ([1]; equi-analgesic doses (DEX: higher doses)): slight motor impairment
- EC50 [2]: 45 nM
- Emax ([2]; Gi recruitment, Tables 7-9, read-out: G protein Emax (%)): 76%
- Emax ([3]; read-out: β-arrestin-2 Emax): < 5%
- Effect of atipamezole on the agonist's effect in SNI mice [4]: reversed by atipamezole
- Mechanical thresholds / anti-allodynic effect in SNI mice ([4]; systemic injection): exhibited anti-allodynic effects
- EC50 [5, 19]: 9.7 ± 2.4 nM
- Emax ([5]; read-out: Gαi Emax): 74 ± 4%
- Ki [6, 20]: 12 ± 3.6 nM
- Gi activity at F427^7.39 substitution [7]: eliminated
- Emax [8]: < 5%
- half-life [9, 21]: 14.5 h
- AUC Brain ([9]; I.P. 10 mg/kg): 1160000 ng·min/mL
- AUC CSF ([9]; I.P. 10 mg/kg): 18400 ng·min/mL
- Cmax Brain ([9]; I.P. 10 mg/kg): 16.2 µg/mL
- Cmax CSF ([9]; I.P. 10 mg/kg): 0.0442 µg/mL
- half-life [9, 22]: 0.88 h
- AUC [9, 23]: 0.567 µg·h/mL
- Cmax [9, 23]: 0.62 µg/mL
- half-life [9, 24]: 1.01 h
- Thermal latencies / anti-hyperalgesic effect in CFA model [10]: exhibited anti-hyperalgesic effects

SMILES: Clc1ccc2cccc(Nc3ccncc3)c2c1 [PS75, N-(7-Chloronaphthalen-1-yl)pyridin-4-amine x TFA]
- Performance in rotarod test ([1]; doses up to 20 mg/kg): did not have an effect
- Withdrawal latencies, tail flick [11]: increased withdrawal latencies
- analgesic in vivo [12]: analgesic in vivo
- functional classification (agonist / weak agonist) ([2]; Gi recruitment, Table 6, result in words): agonist
- EC50 ([2]; Gi recruitment, Table 6, read-out: EC50): 4.8 nM
- Emax ([2]; Gi recruitment, Table 6, read-out: Emax (%)): 79%
- Emax ([3]; read-out: β-Arr-2 Emax @ 0.1 mM): 15%
- Emax at 100 µM ([3]; read-out: β-arrestin-2 Emax @ 0.1 mM): 15 ± 3%
- Effect of atipamezole on the agonist's effect in SNI mice ([4]; TFA): not significant reversal; also recorded: partially reversed
- Mechanical thresholds / anti-allodynic effect in SNI mice ([4]; systemic injection): exhibited anti-allodynic effects
- Reversal of mechanical hypersensitivity in SNI mice ([4]; systemic injection): completely reversed the mechanical hypersensitivity
- EC50 ([5]; Gi EC50 ± SE, BRET biosensor, human α2AAR (Table 3)): 4.8 nM
- EC50 [5, 19]: 4.8 nM
- Emax ([5]; read-out: Gi Emax ± SEM): 82%
- Emax ([5]; read-out: Gαi Emax): 82%
- Fold increased Gi potency compared to ‘9087 ([5]; TFA): 13 fold and 11 fold
- Metabolic stability, compound remaining [13]: remain largely unmodified after 1 hour
- Ki ([6]; mean ± SEM (Table 3), read-out: Ki): 8.2 ± 0.48 nM
- Ki [6, 20]: 8.2 ± 0.48 nM
- Mechanical thresholds of naïve (uninjured) mice [14]: did increase the mechanical thresholds
- Disappearance of α2AAR from the plasma membrane (internalization) [15]: no effect
- AUC [9, 25]: 3.46 µg·h/mL
- Cmax [9, 25]: 2.59 µg/mL
- half-life ([9]; C57BL/6N ('9087), C57BL/6 (PS75), mouse, plasma, iv, I.V. 10 mg/kg, read-out: T ½ Plasma (converted)): 1.64 h
- bioavailability ([9]; C57BL/6N ('9087), C57BL/6 (PS75), mouse, plasma, oral, from I.V. 10 mg/kg and P.O. 30 mg/kg dosing): 102%
- AUC [9, 26]: 10.6 µg·h/mL
- Cmax [9, 26]: 2.39 µg/mL
- half-life ([9]; C57BL/6N ('9087), C57BL/6 (PS75), mouse, plasma, po, P.O. 30 mg/kg, read-out: T ½ Plasma (converted)): 3.17 h
- half-life [9, 21]: 2.55 h
- AUC Brain ([9]; I.P. 10 mg/kg): 888000 ng·min/mL
- AUC CSF ([9]; I.P. 10 mg/kg): 7790 ng·min/mL
- Cmax Brain ([9]; I.P. 10 mg/kg): 9.2 µg/mL
- Cmax CSF ([9]; I.P. 10 mg/kg): 0.0993 µg/mL
- half-life [9, 22]: 1.07 h
- AUC [9, 23]: 0.927 µg·h/mL
- Cmax [9, 23]: 0.679 µg/mL
- half-life [9, 24]: 0.73 h

SMILES: COC1(C2=NCCN2)COc2ccccc2O1 (centres unmarked) [[^3H]RX82,1002]
- Kd [16]: 2.3 ± 0.52 nM
- Kd [17]: 1.8 ± 0.61 nM
- Kd ([6]; saturation binding): 0.54 ± 0.024 nM
- Kd [18]: 0.58 ± 0.11 nM
